Reference: PubChem BioAssay (NCI)
“And” between values parts separate entries of the source, which are not always exact repeats. Equal entries are not always repeated.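 48-hour exposure; five concentrations; linearly interpolated endpoints. GI50 marks 50% less growth. TGI is the concentration that stops growth completely.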

Key:
Experiment in all cases: NCI tumour cell line growth inhibition, 48 h
SF-268 CNS = test system: SF-268 CNS
RXF 393 renal = test system: RXF 393 renal
SK-MEL-28 melanoma = test system: SK-MEL-28 melanoma
MDA-MB-435 = test system: MDA-MB-435
MDA-N = test system: MDA-N
OVCAR-3 ovarian = test system: OVCAR-3 ovarian
SK-MEL-2 melanoma = test system: SK-MEL-2 melanoma
SR leukemia = test system: SR leukemia
A549 NSCLC = test system: A549 NSCLC
RPMI-8226 leukemia = test system: RPMI-8226 leukemia

Row | SMILES | TGI (SF-268 CNS) | TGI (RXF 393 renal) | TGI (SK-MEL-28 melanoma) | TGI (MDA-MB-435) | TGI (MDA-N) | TGI (OVCAR-3 ovarian) | TGI (SK-MEL-2 melanoma) | TGI (SR leukemia) | TGI (A549 NSCLC) | TGI (RPMI-8226 leukemia) | GI50 (SK-MEL-2 melanoma) | GI50 (A549 NSCLC)
1 | O=C1CCc2ccc(O)c(c2)Oc2ccc(cc2)C(Sc2ccccc2)CCO1 (configuration not stated) | 42.4 µM | 35.4 µM | 31.6 µM | 41.9 µM | 34.8 µM | 29.6 µM | 37.3 µM | 76 µM | 59 µM | 36.4 µM |  | 
2 | CN(C)c1c(C2OC(CO)C(O)C2O)c(=O)c1=O (configuration not stated) | > 100 µM | > 100 µM | > 100 µM | > 100 µM | > 100 µM | > 100 µM | > 100 µM | > 100 µM | > 100 µM | > 100 µM |  | 
3 | COC(C)(C)/C=C/c1[nH]c2ccccc2c1CC(=O)NCCc1cn(C(c2ccccc2)(c2ccccc2)c2ccccc2)cn1 | > 100 µM | > 100 µM | 29.8 µM | 22.3 µM | 19.9 µM | > 29.2 µM | 6.45 µM | 5.8 µM | > 100 µM | 6.77 µM |  | 
4 | O=C1CC(CC(=O)c2ccc(Br)cc2)C(=O)/C1=C(/O)c1ccc(Br)cc1 (configuration not stated) | > 100 µM | > 100 µM | > 100 µM | > 100 µM | > 100 µM | > 100 µM | > 100 µM | > 100 µM | > 100 µM | > 100 µM |  | 
5 | Cc1cccc2sc(-c3ccc(O)cc3)nc12 | 31.9 µM | 32.1 µM | 33.4 µM | 26.8 µM | 19.4 µM | 29.8 µM | 33.7 µM | 47.3 µM | 34.8 µM | 44.2 µM |  | 
6 | CC(C)(Cl)C(Br)CCC(Br)(CCl)C(Cl)CBr (configuration not stated) |  | > 10 µM | > 10 µM | > 10 µM | > 10 µM | > 10 µM | > 10 µM | > 10 µM |  | > 10 µM |  | 
7 | CCCCCc1c(CCCC)c(=O)[nH]c2nc(NC(=O)CCCC)ccc12 | > 100 µM | > 100 µM | > 100 µM | > 100 µM | > 100 µM | > 100 µM | > 100 µM | > 100 µM | > 100 µM | > 100 µM |  | 
8 | CC1=C(O)c2ccccc2C(=O)C1=O | > 100 µM | > 100 µM | > 100 µM | > 100 µM | > 100 µM | > 100 µM | > 100 µM | > 100 µM | > 100 µM | > 100 µM |  | 
9 | COc1ccc(COC(=O)NCC(=O)NC(C)C(=O)NC(Cc2ccccc2)C(=O)OCc2ccccc2)cc1 (configuration not stated) | > 100 µM and 55.2 µM | 82.2 µM | 39.5 µM and 34.8 µM | 47.3 µM and 71.7 µM | > 100 µM and 62.8 µM | 64.2 µM and 50.7 µM | 83.3 µM and > 100 µM | > 100 µM and 51.7 µM | 41.2 µM and > 100 µM | > 100 µM and 57.1 µM | 35.5 µM and > 100 µM | 18.8 µM and > 100 µM
10 | CCC1(c2ccc(N3C(=O)c4cc(OC)c(OC)cc4C3=O)cc2)CCC(=O)NC1=O (configuration not stated) | > 10 µM | > 10 µM | > 10 µM | > 10 µM | > 10 µM | > 10 µM | > 10 µM | > 10 µM | > 10 µM | > 10 µM |  | 
11 | COc1ccccc1C(O)[C@@H]1C[C@@H]2[C@H]3CC[C@@](C)([C@@H]2O1)C3(C)C (some centres not stated) | 58 µM | 32.6 µM | 37.3 µM | 34.4 µM | 32 µM | 31.3 µM | 34.3 µM | 48.3 µM | 43.4 µM | 78.7 µM |  | 
12 | COc1ccc(N=NC(=O)NC(CC(C)C)C(=O)NCC(=O)O)cc1 (configuration not stated) | > 100 µM | > 100 µM | > 100 µM | > 100 µM | > 100 µM | > 100 µM | > 100 µM | > 100 µM | > 61.9 µM | > 100 µM |  | 
13 | O=C1Nc2nccnc2C(=O)N2CCC[C@@H]12 | > 100 µM | > 100 µM | > 100 µM | > 100 µM | > 100 µM | > 100 µM | > 100 µM | > 100 µM | > 100 µM | > 100 µM |  | 
14 | Cc1cc2nc3ccccc3n2c2nc(N)ccc12 | > 100 µM | > 100 µM |  | > 100 µM | > 100 µM | > 100 µM | > 100 µM | > 100 µM | > 100 µM | 70.2 µM |  | 
15 | CCOP(=O)(OCC)C(NC(=O)C(C(F)(F)F)C(F)(F)F)c1ccccc1 (configuration not stated) | > 100 µM | > 100 µM | > 100 µM | > 100 µM | > 100 µM | > 100 µM | > 100 µM | > 100 µM | > 100 µM | 67 µM |  | 
16 | C=C1C(=O)O[C@H]2C1C[C@@H](OC(C)=O)/C(C)=C/CC[C@@]1(C)O[C@H]21 (some centres not stated) |  | 20.2 µM | 24.9 µM | 87.7 µM | 18.7 µM |  | 57.9 µM | 20.1 µM | > 100 µM | 13.6 µM |  | 
17 | COc1ccccc1/C=C/C1=NN(c2cccc(S(=O)(=O)O)c2)C2(C1)C(Cl)C(=O)N2c1nc2ccccc2s1 (configuration not stated) | > 100 µM | > 87 µM | > 100 µM | > 100 µM | > 100 µM | > 100 µM | > 100 µM | 55.2 µM | > 100 µM | 44 µM |  | 
